From patent publication US20200199102A1, “COMPOUNDS THAT PARTICIPATE IN COOPERATIVE BINDING AND USES THEREOF” (Revolution Medicines, Inc., priority 2017, published 2020)
Values joined by “and” are separate entries in the source; they are usually repeats but may differ in a detail not shown here. Equal values may be shown once.

What was measured:
CEP250 [1] = molecular target: T1, CEP250 (Homo sapiens, UniProt P62942+Q9BV73); assay: Crystal structure analysis of FKBP12-compound-CEP250 ternary complexes
T1 construct: CEP25011.4 (residues 2134-2231) (in-house); made in house
T1 sequence (Q9BV73 2134-2231): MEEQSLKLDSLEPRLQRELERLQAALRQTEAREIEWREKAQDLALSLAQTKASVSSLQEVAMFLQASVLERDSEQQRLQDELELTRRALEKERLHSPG
T1 sequence (P62942 whole entry, the tested form may be a part): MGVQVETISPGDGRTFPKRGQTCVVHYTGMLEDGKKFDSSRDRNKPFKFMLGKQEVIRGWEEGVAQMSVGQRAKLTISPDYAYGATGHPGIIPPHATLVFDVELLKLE
Description: This protocol describes the crystallization and structure determination method for structures of FKBP12-Compound 2-CEP250 and FKBP12-F11-CEP250 ternary complexes.
A 3:1 molar excess of FKBP12-F2 or FKBP12-F11 binary complex is added to CEP25011.4 and incubated at 4° C. overnight to complete ternary complex formation. Pure ternary complex is isolated by gel filtration purification on a Superdex 200 column in 12.5 mM HEPES pH 7.4, 75 mM NaCl. Purified complex (at 10-20 mg/ml) is subjected to crystallization at 22° C. using sitting drop vapor diffusion. FKBP12-F2-CEP250 crystals grow in a well solution containing 0.2 M sodium malonate, 0.1 M HEPES 7.0, 21% PEG 3350. FKBP12-F11-CEP250 crystals grow in a well solution containing 0.1 M Tris pH 8.5, 0.2 M trimethylamine N-oxide, 22-24% PEG2000 MME. For data collection crystals are transferred to a solution containing mother liquor supplemented with 20-25% glycerol, and then frozen in liquid nitrogen. Diffraction datasets are collected at the Advanced Photon Source (APS) and processed with the HKL program. Molecular replacement solutions are obtained using the program PHASER in the CCP4 suite, using the published structure of FKBP12 (PDB-ID 1FKD) as a search model. Subsequent model building and refinement are performed according to standard protocols with the software packages CCP4 and COOT.

FKBP12 [2] = molecular target: T2, FKBP12 (Homo sapiens, UniProt P62942); assay: AlphaLISA inhibition of binding of biotinylated FK506 to FLAG tagged FKBP12; set-up: made in house; conditions: read-out: Binding affinity to FKBP12 (by displacement of FK506)
T2 sequence (P62942 whole entry, species assumed): as the sequence (P62942 whole entry, the tested form may be a part) above
Excerpt: The binding of compounds of the invention to FKBP12 can be determined using the following protocol.
This protocol utilizes Perkin Elmers AlphaLISA technology platform to detect FKBP binders by measuring the inhibition of binding of biotinylated FK506 to FLAG tagged FKBP12.
10×TBST Buffer (Boston BioProducts IBB-181), Biotinylated FK506 (in-house), FLAG tagged FKBP (in-house); anti-FLAG Donor beads (PerkinElmer AS103) and Streptavidin Acceptor beads (PerkinElmer AL125); Compounds in DMSO (in-house), FK506.
Add 20 uL of 12.5 nM FKBP-FLAG working stock to each well of the 96-well plate. Add 1 uL of test compound (100% DMSO) to each well of the plate using the Janus MTD head and P20 tips (except control wells). Add 1 uL of DMSO to negative control wells and 1 uL of 50 uM FK506 solution to positive control wells. In the dark, add 20 uL of combined Donor/Acceptor beads to each well. Incubate in the dark for 30 minutes at room temperature. In the dark, add 10 uL of 5 nM biotinylated FK506 working stock to each well. Incubate in the dark for 60 minutes at room temperature. Protect plate from light until reading on Biotek Synergy2 Plate Reader; Alphalisa 96-well protocol (680 excitation/615 emission).

FKBP12 [3] = molecular target: T2, FKBP12; assay: SPR binding of compound (analyte) to immobilized FKBP12
Description: This protocol utilizes Surface Plasmon Resonance (SPR) as a method to determine kinetics (KD, Ka, Kd) for the binding of compound (analyte) to immobilized FKBP12 (ligand).
Compound in 100% DMSO (in-house), 10×HBS-P+ buffer (GE Healthcare BR-1006-71), Assay buffer (1×HBS-P+ buffer, 1% DMSO), 12×HIS tagged FKBP12 (in-house).
Experiments are performed at 25° C. Stock solution of 12×HIS tagged FKBP12 is diluted to 100 nM in assay buffer (1% DMSO final). Approximately 500-600 RU of FKBP12 is immobilized on one of two flow cells of an activated NTA chip. The second flow cell is not activated as a reference for non-specific interaction of the analyte to the sensor chip. Various concentrations of compound (1 nM-1 μM range), serially diluted into the same assay buffer (1% DMSO final), are injected onto the FKBP12 surface and reference surface at a flow rate of 10 μl/min. The surface is regenerated between analyte injections with 350 mM EDTA.
Experiments are performed at 25° C. Stock solution of 12×HIS tagged FKBP12 is diluted to 100 nM in assay buffer (1% DMSO final). Approximately 500-600 RU of FKBP12 is immobilized on one of two flow cells of an activated NTA chip. The second flow cell is not activated as a reference for non-specific interaction of the analyte to the sensor chip.

HeLa-FKBP12 cells = assay: Biosensor cell permeability assay (FKBP destabilizing mutant), HeLa-FKBP12 cells; format: cell-based; conditions: 72 hrs
Description: Cell permeability of compounds can be determined using the following protocol.
This protocol utilizes a modified FKBP or cyclophilin destabilizing mutant to determine the bioactivity of FKBP binding compounds or cyclophilin binding compounds in whole cell assay.
DMEM, DMEM without Phenol Red, 10% FBS, 1× Sodium Pyruvate, 1× Glutamax. Add 125 μl of media with compound per well.
Plate HeLa-FKBP12 cells (for FKBP binding compounds) or HeLa-CyclophilinA cells (for cyclophilin binding compounds) and seed overnight at 5 k/well (approximately ˜18 hrs.). Using a multi-channel pipet, take out the old media and add ˜125 ul of new media with compounds. Compounds are diluted using DMEM without Phenol Red, 10% FBS, 1× Sodium Pyruvate, 1× Glutamax. Add 125 μL of media with compound per well. Cells are treated with compounds at concentration: 30, 10, 3.33, 1.11, 0.37, 0.12, 0.04 and 0.013 uM. Time points are taken at 72 hrs and plate read using plate reader with excitation/emission: 575/620.
Cell binding/permeability is calculated in fold-change (Total RFU of treated samples/total RFU of DMSO treated samples or total RFU above background (Total RFU minus total RFU of DMSO treated samples).

CEP250 [4] = molecular target: T3, CEP250 (Homo sapiens, UniProt Q9BV73); assay: SPR binding of CEP250 (analyte) to immobilized FKBP12-F2 binary complex; conditions: 1 μM F2
T3 construct: CEP25011.4 (residues 2134-2231) (in-house); made in house
Description: This protocol utilizes Surface Plasmon Resonance (SPR) as a method to determine kinetics (KD, Ka, Kd) for the binding of CEP250 (analyte) to immobilized FKBP12-F2 binary complex (ligand).
Experiments are performed at 25° C. […] Approximately 200-400 RU of FKBP12 is immobilized on one of two flow cells of an activated NTA chip. The second flow cell is not activated as a reference for non-specific interaction of the analyte to the sensor chip. […] The surface is regenerated between analyte injections with 350 mM EDTA.
The BiaEvaluation software program is used for data fitting. All data is reference subtracted against both the reference flow cell and a buffer injection. For kinetic analyses, data is locally fit to a 1:1 interaction model.

CEP250 [5] = molecular target: T3, CEP250; assay: ITC binding of FKBP12-compound binary complexes to CEP250; conditions: FKBP12 10 μM + ligand 20 μM in cell, 298 K; for Kd: calculated from Ka = 1/Kd
[6] = FKBP12-compound-CEP250 crystal structure

Question: CC[C@H](Cc1ccccc1)[C@@H]1/C=C/C/C=C/C[C@@H](C)[C@H](O)[C@@H](C)[C@@H]2CC[C@@H](C)C(=O)C(O)(O2)C(=O)N2CCCC[C@H]2C(=O)O1 [Compound F2, (2S)-1-((4R,7S)-7-((2R,3S,4R,6E,9E,11R,12R)-12-benzyl-3,11-dihydroxy-4-methyltetradeca-6,9-dien-2-yl)-2-hydroxy-4-methyl-3-oxooxepane-2-carbonyl)piperidine-2-carboxylic acid C-11 lactone] was tested. Which “buried surface area of CEP250 contributed by FKBP12” value (CEP250 [1]; [6]) did it give?
Answer: 663 Å^2

Question: And the “buried surface area of CEP250 contributed by the compound” value (CEP250 [1]; [6])?
Answer: 232 Å^2 and 241 Å^2

Question: And the “total buried surface area of CEP250” value (CEP250 [1]; [6])?
Answer: 865 Å^2

Question: What about the “total buried surface area of the ternary complex” value (CEP250 [1]; [6]) of the same compound?
Answer: 1759 Å^2

Question: What about the “binding interactions between compound and CEP250 that are van der Waals or pi-pi interactions” value (CEP250 [1]; ternary complex) of the same compound?
Answer: 100%

Question: What about the IC50 (FKBP12 [2]) of the same compound?
Answer: 0.0015 µM

Question: And the Ka (FKBP12 [3]; Example 10, 25° C., 1:1 interaction model)?
Answer: 45000 M⁻¹ s⁻¹

Question: What about the Kd (FKBP12 [3]; read-out: SPR affinity to FKBP12: KD, 25° C., Table 7) of the same compound?
Answer: 0.0126 µM

Question: What about the IC50 (HeLa-FKBP12 cells) of the same compound?
Answer: < 1 µM

Question: And the Ka (CEP250 [4]; FKBP12/F2 complex to CEP25011.4 (residues 2134-2231))?
Answer: 571000 M⁻¹ s⁻¹

Question: And the Ka (CEP250 [4]; FKBP12/F2 complex to CEP25029.2 (residues 1982-2231))?
Answer: 311000 M⁻¹ s⁻¹

Question: And the ΔG (CEP250 [5]; CEP25011.4 68 μM in syringe)?
Answer: −40.75 kJ*mol −mol−1

Question: And the ΔH (CEP250 [5]; CEP25011.4 68 μM in syringe)?
Answer: −49.37 kJ*mol −mol−1

Question: What about the “−T*ΔS” value (CEP250 [5]; CEP25011.4 68 μM in syringe) of the same compound?
Answer: 8.62 kJ*mol −mol−1

Question: What about the Kd (CEP250 [5]; CEP25011.4 68 μM in syringe) of the same compound?
Answer: 0.07 µM

Question: And the ΔG (CEP250 [5]; CEP25029.4 118 μM in syringe)?
Answer: −38.41 kJ*mol −mol−1

Question: What about the ΔH (CEP250 [5]; CEP25029.4 118 μM in syringe) of the same compound?
Answer: −52.21 kJ*mol −mol−1

Question: And the “−T*ΔS” value (CEP250 [5]; CEP25029.4 118 μM in syringe)?
Answer: 13.80 kJ*mol −mol−1

Question: What about the Kd (CEP250 [5]; CEP25029.4 118 μM in syringe) of the same compound?
Answer: 0.19 µM
